PMC11452715, “Pharmacokinetic and pharmacodynamic evaluation of various vasopressin doses and routes of administration in a neonatal piglet model” (Scientific Reports, 2024)

Key:
[1] = system: adults with out-of-hospital cardiac arrest; design: method as in PMID 14711909; details: adults with asystolic arrest, cited from earlier work; for rate of survival to hospital admission: p = 0.02; for rate of survival to discharge: p = 0.04
Description: (§1) Vasopressin, an antidiuretic hormone, might be an alternative to epinephrine, as its efficacy is not impaired during metabolic or respiratory acidosis[3],[4],[9].

[2] = system: patients < 18 years of age; design: method as in PMID 21926666; details: vasopressin (0.8 IU/kg) after an initial epinephrine dose (n = 10) vs ≥ 2 doses of epinephrine; cited from earlier work
Description: as §1

neonatal piglets = test: Hemodynamic and cardiac function parameters after vasopressin administration in healthy neonatal piglets; format: in vivo, piglet; details: for ejection fraction / cardiac output: one minute after drug administration, n = 5
Description: Piglets were instrumented as previously described with modifications[15]–[17]. Following the induction of anaesthesia using isoflurane, piglets were intubated via a tracheostomy, and pressure-controlled ventilation (Sechrist Infant Ventilator Model IV-100; Sechrist Industries, Anaheim, California) was commenced at a respiratory rate of 16–20 breaths/min and pressure of 20/5 cmH2O. Oxygen saturation was kept within 90–100%, glucose level and hydration was maintained with an intravenous infusion of 5% dextrose at 10 mL/kg/hr. During the experiment anaesthesia was maintained with intravenous propofol 5–10 mg/kg/hr and morphine 0.1 mg/kg/hr. Additional doses of propofol (1–2 mg/kg) and morphine (0.05–0.1 mg/kg) were also given as needed. The piglet’s body temperature was maintained within a normal porcine temperature range of 38.5–39.5 °C using an overhead warmer and a heating pad.
A 5-French Argyle® (Klein-Baker Medical Inc. San Antonio, TX) double-lumen catheter was inserted via the right femoral vein for administration of fluids and medications. A 5-French Argyle® single-lumen catheter was inserted above the right renal artery via the femoral artery for continuous arterial blood pressure monitoring in addition to arterial blood gas measurements. The right common carotid artery was also exposed and encircled with a real-time ultrasonic flow probe (2 mm; Transonic Systems Inc., Ithica, NY) to measure cerebral blood flow[15]–[17]. A Millar® catheter (MPVS Ultra1, ADInstruments, Houston, TX) was inserted into the left ventricle via the left common carotid artery for continuous measurement of stroke volume, ejection fraction, end-diastolic and -systolic volumes, left ventricular pressure, and left ventricular contractile function (dp/dtmax, dp/dtmin)^19,20.
Piglets were placed in supine position and allowed to recover from surgical instrumentation until baseline hemodynamic measures were stable (minimum of one hour). Ventilator rate was adjusted to keep the partial arterial CO2 between 35 and 45 mmHg as determined by periodic arterial blood gas analysis. Mean systemic arterial pressure (MAP), systemic systolic arterial pressure, heart rate, and percutaneous oxygen saturation were continuously measured and recorded throughout the experiment with a Hewlett Packard 78833B monitor (Hewlett Packard Co., Palo Alto, CA)[15]–[17].
(§2) Piglets were randomized into four routes and various vasopressin doses: (1) IV vasopressin (0.4IU/kg; n = 5, control), (2) IO vasopressin (n = 5/dose; 0.2IU/kg, 0.4IU/kg, or 0.8IU/kg), (3) ETT vasopressin (n = 5/dose; 4IU/kg, 8IU/kg, or 16IU/kg), (4) IN vasopressin (n = 3/dose; 8IU/kg, 16IU/kg, or 32IU/kg). In all groups, a 3mL saline bolus was administered immediately after the vasopressin dose[20],[21].
(§3) Preliminary tests on a few piglets were conducted to determine the optimal ETT vasopressin doses. […] All piglets, regardless of randomization, underwent insertion of an intraosseous needle during surgical instrumentation to ensure each piglet underwent similar surgical procedures. Arterial blood was collected before vasopressin administration (baseline), 1, 2, 3, 4, 5, and 10 min after vasopressin administration. Following final collection of blood, piglets were euthanized with an intravenous overdose of sodium pentobarbital (100 mg/kg).
Demographics of study piglets were recorded. Transonic flow probes, heart rate, and pressure transducer outputs, and Millar catheter were digitized and recorded with LabChart® programming software (ADInstruments, Houston, TX). Blood samples were collected and centrifuged at 11,000 rpm for five minutes, plasma was then separated and stored at -80 °C. Concentrations of vasopressin were quantified using commercially available ELISA kits (K049-H1, Arbor Assays, Ann Arbor, Michigan, USA). Analysis of pharmacokinetic parameters was performed with the Non-Compartmental Analysis program of the SimBiology Model Analyzer app within MATLAB (MATLAB ver. R2023b, MathWorks, Natick, MA, USA). […]

[3] = Plasma vasopressin concentrations (ELISA) and non-compartmental pharmacokinetic analysis in neonatal piglets; format: in vivo, piglet; details: for plasma vasopressin concentrations compared to IV vasopressin / plasma concentrations compared to IV vasopressin / Cmax: ELISA; for Tmax compared to IV vasopressin: p < 0.05; for Cmax: pig, plasma, mean (SD), SD
Protocol: as §2, §3
Demographics of study piglets were recorded. Transonic flow probes, heart rate, and pressure transducer outputs, and Millar catheter were digitized and recorded with LabChart® programming software (ADInstruments, Houston, TX). Blood samples were collected and centrifuged at 11,000 rpm for five minutes, plasma was then separated and stored at -80 °C. Concentrations of vasopressin were quantified using commercially available ELISA kits (K049-H1, Arbor Assays, Ann Arbor, Michigan, USA). Analysis of pharmacokinetic parameters was performed with the Non-Compartmental Analysis program of the SimBiology Model Analyzer app within MATLAB (MATLAB ver. R2023b, MathWorks, Natick, MA, USA).
The data was tested for normality (Shapiro-Wilk and Kolmogorov-Smirnov test) and compared using ANOVA for repeated measures using Tukey post-test for parametric and Dunn’s test for nonparametric comparisons of continuous variables, and Fisher’s exact test for categorical variables. The data are presented as mean (standard deviation - SD) for normally distributed continuous variables and median (interquartile range - IQR) when the distribution was skewed. P-values are 2-sided and p < 0.05 was considered statistically significant. Statistical analyses were performed with SigmaPlot (Systat Software Inc, San Jose, USA).

[4] = 0.8IU/kg IV vasopressin, four hours after resuscitation; cited from earlier work
Description: This may result from the non-statistically significant lower baseline ejection fraction in 0.4IU/kg IO vasopressin piglets compared to 0.8IU/kg IO vasopressin piglets (Table 1).

pediatric patients = details: 0.4IU/kg/dose IV as rescue therapy; cited from earlier work
Description: Vasopressin, an antidiuretic hormone, might be an alternative to epinephrine, as its efficacy is not impaired during metabolic or respiratory acidosis[3],[4],[9]. […] Similarly, in a case series of four pediatric patients’ vasopressin at 0.4IU/kg/dose IV administered as rescue thera ...

[5] = 0.4IU/kg IO vasopressin, vs baseline
[6] = 0.4IU/kg IV vasopressin (control)

For `CNC[C@H](O)c1ccc(O)c(O)c1` [epinephrine], the “rate of survival to hospital admission” value [1] is given as 20%, the “rate of survival to discharge” value [1] is given as 2% and the 24 h survival [2] is given as 30%.

In the case of `NC(=O)CC[C@@H]1NC(=O)[C@H](Cc2ccccc2)NC(=O)[C@H](Cc2ccc(O)cc2)NC(=O)[C@@H](N)CSSC[C@@H](C(=O)N2CCC[C@H]2C(=O)N[C@@H](CCCN=C(N)N)C(=O)NCC(N)=O)NC(=O)[C@H](CC(N)=O)NC1=O` [vasopressin], the “rate of survival to hospital admission” value [1] is given as 29%, the “rate of survival to discharge” value [1] is given as 5% and the 24 h survival [2] is given as 80%. The “time after drug administration for which cardiac output significantly decreased” value (neonatal piglets; 0.2IU/kg IO vasopressin) was “one”, the “carotid blood flow compared to IV vasopressin” value (neonatal piglets; 0.2IU/kg IO vasopressin, for four minutes, vs 0.4IU/kg IV) was “significantly higher” and the “time for which MAP significantly increased” value (neonatal piglets; 0.2IU/kg IO vasopressin, vs baseline) was “two minutes”. For the same compound, the “time post-drug administration for which carotid blood flow was decreased” value (neonatal piglets; 0.2IU/kg IO vasopressin, comparable to baseline from three to 10 min) was “two”, the “time after drug administration for which cardiac output significantly decreased” value (neonatal piglets; 0.4IU/kg IO vasopressin) was “two” and the ejection fraction (neonatal piglets; 0.4IU/kg IO vasopressin, p = 0.042 vs IV) was 8.4 (7.7–9.8) %. For the same compound, the “time for which MAP significantly increased” value (neonatal piglets; [5]) was “five minutes”, the “time post-drug administration for which carotid blood flow significantly decreased” value (neonatal piglets; [5]) was “five” and the cardiac output (neonatal piglets; [6]) was 193.1 (170.3–365.8) mL/kg/min. For the same compound, the ejection fraction (neonatal piglets; [6]) was 23.3 (22.5–32.6) %, the “time for which MAP significantly increased” value (neonatal piglets; 0.4IU/kg IV vasopressin, vs baseline) was “five minutes” and the “MAP and dP/dT minimum, IV vasopressin compared to all IN vasopressin doses” value (neonatal piglets; 0.4IU/kg IV vs 8, 16, 32IU/kg IN) was “significantly higher”. For the same compound, the “time for which MAP significantly increased” value (neonatal piglets; 0.8IU/kg IO vasopressin, vs baseline) was “five minutes”, the “dP/dT minimum compared to IV vasopressin” value (neonatal piglets; 4IU/kg ETT vasopressin vs 0.4IU/kg IV) was “significantly lower” and the cardiac output (neonatal piglets; 4IU/kg ETT vasopressin, p = 0.045 vs IV) was 466 (394–558) mL/kg/min. For the same compound, the hemodynamic response (neonatal piglets; 4IU/kg IN vasopressin, preliminary, doses then increased) was “lack of hemodynamic response”, the “carotid blood flow, IN vasopressin doses compared to IV vasopressin” value (neonatal piglets; 8, 16, 32IU/kg IN vs 0.4IU/kg IV) was “higher” and the “dP/dT minimum compared to IV vasopressin” value (neonatal piglets; 16IU/kg ETT vasopressin vs 0.4IU/kg IV) was “significantly lower”. The “heart rate, dP/dT maximum or minimum compared to baseline values or IV vasopressin” value (neonatal piglets; any IO-administered vasopressin dose (0.2, 0.4, 0.8IU/kg)) was “no significant changes”, the “changes from baseline in heart rate, carotid blood flow, cardiac output, ejection fraction, stroke volume, dP/dT maximum or minimum” value (neonatal piglets; any doses within the IN route (8, 16, 32IU/kg)) was “no changes” and the “changes from baseline in heart rate, carotid blood flow, cardiac output, ejection fraction, stroke volume, dP/dT maximum or minimum” value (neonatal piglets; any vasopressin dose administered endotracheally (4, 8, 16IU/kg)) was “no changes from baseline”. For the same compound, the “plasma vasopressin concentrations compared to IV vasopressin” value ([3]; 4IU/kg ETT vasopressin, two minutes after drug administration) was “significantly lower”, the “plasma vasopressin concentrations compared to IV vasopressin” value ([3]; 8IU/kg ETT vasopressin, three minutes after drug administration) was “significantly lower” and the “plasma concentrations compared to IV vasopressin” value ([3]; 8IU/kg IN vasopressin, 1-10 min) was “significantly lower plasma concentrations at all measured time points”. For the same compound, the “plasma vasopressin concentrations compared to IV vasopressin” value ([3]; 16IU/kg ETT vasopressin, five minutes after drug administration) was “significantly lower”, the “plasma concentrations compared to IV vasopressin” value ([3]; 16IU/kg IN vasopressin, 1-10 min) was “significantly lower plasma concentrations at all measured time points” and the “plasma concentrations compared to IV vasopressin” value ([3]; 32IU/kg IN vasopressin, 10-minutes after drug administration) was “comparable”. The “Tmax compared to IV vasopressin” value ([3]; 32IU/kg IN vasopressin) was “significantly higher”, the “Tmax compared to IV vasopressin” value ([3]; all ETT vasopressin doses (4, 8, 16IU/kg)) was “significantly higher” and the “plasma vasopressin concentrations compared to IV vasopressin” value ([3]; any IO vasopressin dose (0.2, 0.4, or 0.8IU/kg) vs 0.4IU/kg IV) was “no differences”. The “pharmacokinetic parameters (Cmax, AUC, Tmax, clearance, half-life), IV vs IO” value ([3]; any IO vasopressin dose vs 0.4IU/kg IV) was “comparable”, the Cmax ([3]; endotracheal, 4IU/kg ETT vasopressin, n = 5, p < 0.0001 vs IV) was 0.958 ng/mL and the Cmax ([3]; inhaled or intranasal, 8IU/kg IN vasopressin, n = 3, p < 0.0001 vs IV) was 0.384 ng/mL. For the same compound, the Cmax ([3]; inhaled or intranasal, 16IU/kg IN vasopressin, n = 3, p < 0.0001 vs IV) was 0.399 ng/mL, the Cmax ([3]; 0.4IU/kg IV vasopressin (control), n = 5) was 2.25 ng/mL and the “base excess and lactate concentrations compared to 0.4IU/kg IV vasopressin” value [4] was “significantly higher”. The “achieved ROSC” value (pediatric patients) was 3/4, the “survived > 24 h” value (pediatric patients) was 2/4 and the “survived to hospital discharge” value (pediatric patients) was 1/4.
